Source: patent US20190031599A1, “INDANE DERIVATIVES AS MGLUR7 MODULATORS” (Takeda Pharmaceutical Company Limited, priority 2016, published 2019)
Counter-ions that a name gives are not always drawn.

Molecular target: T1, human mGluR7 (Homo sapiens, UniProt Q14831)
T1 construct: expressed in transfected cells
Assay: mGluR7 assay: CRE-directed luciferase reporter gene assay, reduction of forskolin stimulated cAMP production
Assay type: cell-based
Details: stable CHO cell line expressing the CRE-luc reporter and human mGluR7 genes; decrease of forskolin stimulated luminescence; 10-point concentration-response, duplicate wells
Method in brief: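 Stable CHO cell line co-expressing human mGluR7 and a CRE-luciferase reporter; compounds preincubated 15 min at 37 °C, then forskolin added and incubated 5 h at 37 °C. 10-point half-log concentration-response in duplicate, normalised to forskolin-alone (max) and forskolin plus tool mGluR7 agonist (min) controls.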

T1 sequence (Q14831 35-915): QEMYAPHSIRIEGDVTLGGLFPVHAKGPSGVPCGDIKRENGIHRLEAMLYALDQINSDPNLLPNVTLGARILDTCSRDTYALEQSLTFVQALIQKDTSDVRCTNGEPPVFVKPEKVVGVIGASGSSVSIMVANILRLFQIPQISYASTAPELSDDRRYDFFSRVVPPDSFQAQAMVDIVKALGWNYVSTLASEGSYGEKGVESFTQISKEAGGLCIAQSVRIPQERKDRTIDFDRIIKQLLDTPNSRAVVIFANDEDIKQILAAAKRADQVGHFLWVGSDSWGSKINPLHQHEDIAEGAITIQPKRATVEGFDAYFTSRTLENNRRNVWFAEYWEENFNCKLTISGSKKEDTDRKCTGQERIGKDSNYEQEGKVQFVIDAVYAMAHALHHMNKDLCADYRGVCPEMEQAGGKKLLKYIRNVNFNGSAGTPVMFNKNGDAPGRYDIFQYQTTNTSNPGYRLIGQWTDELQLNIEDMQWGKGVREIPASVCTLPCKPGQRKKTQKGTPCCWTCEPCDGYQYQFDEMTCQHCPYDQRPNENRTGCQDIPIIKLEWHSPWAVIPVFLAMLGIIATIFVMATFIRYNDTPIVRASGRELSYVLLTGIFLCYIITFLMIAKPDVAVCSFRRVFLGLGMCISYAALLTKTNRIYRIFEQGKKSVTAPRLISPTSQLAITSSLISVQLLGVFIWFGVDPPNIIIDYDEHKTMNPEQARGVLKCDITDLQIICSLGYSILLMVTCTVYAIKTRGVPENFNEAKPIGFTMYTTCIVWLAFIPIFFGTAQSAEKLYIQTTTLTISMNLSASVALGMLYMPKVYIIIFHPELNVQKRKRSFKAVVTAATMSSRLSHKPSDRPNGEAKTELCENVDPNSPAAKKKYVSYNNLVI

Row | EC50 [µM] | SMILES
1 | 0.028 | C[C@H](C(=O)N[C@H]1Cc2ccccc2[C@@H]1NC(=O)OC(C)(C)C)c1ccc(F)cc1 [Example 21, tert-butyl N-[(1S,2S)-2-[(2S)-2-(4-fluorophenyl)propanamido]-2,3-dihydro-1H-inden-1-yl]carbamate]
2 | 0.07 | CN[C@H]1c2ccccc2C[C@@H]1NC(=O)[C@@H](C)c1ccccc1 [Example 22, (2S)—N-[(1S,2S)-1-(methylamino)-2,3-dihydro-1H-inden-2-yl]-2-phenylpropanamide]
3 | 0.066 | C[C@H](C(=O)N[C@H]1Cc2ccccc2[C@@H]1N)c1ccc(F)cc1 [Example 24, (2S)—N-[(1S,2S)-1-amino-2,3-dihydro-1H-inden-2-yl]-2-(4-fluorophenyl)propanamide]
4 | 0.023 | C[C@H](C(=O)N[C@H]1Cc2ccccc2[C@@H]1NCC1CCOCC1)c1ccc(F)cc1F [Example 40, (2S)-2-(2,4-difluorophenyl)-N-[(1S,2S)-1-{[(oxan-4-yl)methyl]amino}-2,3-dihydro-1H-inden-2-yl]propanamide]
5 | 0.021 | C[C@H](C(=O)N[C@H]1Cc2ccccc2[C@@H]1NCC1CC1)c1ccc(F)cc1 [Example 47, (2S)—N-[(1S,2S)-1-[(cyclopropylmethyl)amino]-2,3-dihydro-1H-inden-2-yl]-2-(4-fluorophenyl)propanamide]
6 | 0.007 | C[C@H](C(=O)N[C@H]1Cc2ccccc2[C@@H]1NCC(F)(F)F)c1ccc(F)cc1F [Example 59, (2S)-2-(2,4-difluorophenyl)-N-[(1S,2S)-1-[(2,2,2-trifluoroethyl)amino]-2,3-dihydro-1H-inden-2-yl]propanamide]
7 | 0.32 | CC(F)(C(=O)N[C@H]1Cc2ccccc2[C@@H]1N)c1ccc(F)cc1 (stereo partly drawn) [Example 75, N-[(1S,2S)-1-amino-2,3-dihydro-1H-inden-2-yl]-2-fluoro-2-(4-fluorophenyl)propanamide]
8 | 0.582 | CC(C)(C)OC(=O)N[C@H]1c2ccccc2C[C@@H]1NC(=O)C(C)(C)c1ccc(F)cc1 [Example 87, tert-butyl N-[(1S,2S)-2-[2-(4-fluorophenyl)-2-methylpropanamido]-2,3-dihydro-1H-inden-1-yl]carbamate]
9 | 1.61 | C[C@H](C(=O)N[C@H]1Cc2ccccc2[C@@H]1NS(C)(=O)=O)c1ccc(F)cc1F [Example 89, (2S)-2-(2,4-difluorophenyl)-N-[(1S,2S)-1-methanesulfonamido-2,3-dihydro-1H-inden-2-yl]propanamide]
10 | 0.01 | C[C@H](C(=O)N[C@H]1Cc2ccccc2[C@@H]1NCC1CCC1)c1ccc(F)cc1F [Example 90, (2S)—N-[(1S,2S)-1-[(cyclobutylmethyl)amino]-2,3-dihydro-1H-inden-2-yl]-2-(2,4-difluorophenyl)propanamide]
11 | 0.046 | CC(C)(C)OC(=O)N[C@H]1c2ccccc2C[C@@H]1NC(=O)C1(c2ccc(F)cc2)CCOCC1 [Example 94, tert-butyl N-[(1S,2S)-2-[4-(4-fluorophenyl)oxane-4-amido]-2,3-dihydro-1H-inden-1-yl]carbamate]

The remaining lines, values behind:

Row | SMILES | EC50 [µM]
12 | CC(C)C(C(=O)N[C@H]1Cc2ccccc2[C@@H]1N)c1ccc(Cl)cc1 (stereo partly drawn) [Example 20, N-[(1S,2S)-1-amino-2,3-dihydro-1H-inden-2-yl]-2-(4-chlorophenyl)-3-methylbutanamide hydrochloride] | 0.104
13 | C[C@H](C(=O)N[C@H]1Cc2ccccc2[C@@H]1NC(=O)OC(C)(C)C)c1ccc(F)cc1F [Example 23, tert-butyl N-[(1S,2S)-2-[(2S)-2-(2,4-difluorophenyl)propanamido]-2,3-dihydro-1H-inden-1-yl]carbamate] | 0.018
14 | C[C@H](C(=O)N[C@H]1Cc2ccccc2[C@@H]1N)c1ccc(F)cc1F [Example 34, (2S)—N-[(1S,2S)-1-amino-2,3-dihydro-1H-inden-2-yl]-2-(2,4-difluorophenyl)propanamide] | 0.095
15 | C[C@H](C(=O)N[C@@H]1Cc2ccccc2[C@H]1N)c1ccc(F)cc1F [Example 35, (2S)—N-[(1R,2R)-1-amino-2,3-dihydro-1H-inden-2-yl]-2-(2,4-difluorophenyl)propanamide] | 0.233
16 | CCC(C(=O)N[C@@H]1Cc2ccccc2[C@H]1NC(=O)OC(C)(C)C)c1ccc(F)cc1F (stereo partly drawn) [Example 41, tert-butyl N-[(1R,2R)-2-[2-(2,4-difluorophenyl)butanamido]-2,3-dihydro-1H-inden-1-yl]carbamate] | 0.216
17 | CC[C@H](C(=O)N[C@H]1Cc2ccccc2[C@@H]1NC(=O)OC(C)(C)C)c1ccc(F)cc1 [Example 42, tert-butyl N-[(1S,2S)-2-[(2S)-2-(4-fluorophenyl)butanamido]-2,3-dihydro-1H-inden-1-yl]carbamate] | 0.013
18 | CC[C@H](C(=O)N[C@@H]1Cc2ccccc2[C@H]1NC(=O)OC(C)(C)C)c1ccc(F)cc1 [Example 43, tert-butyl N-[(1R,2R)-2-[(2S)-2-(4-fluorophenyl)butanamido]-2,3-dihydro-1H-inden-1-yl]carbamate] | 0.13
19 | CC[C@H](C(=O)N[C@H]1Cc2ccccc2[C@@H]1N)c1ccc(F)cc1 [Example 52, (2S)—N-[(1S,2S)-1-amino-2,3-dihydro-1H-inden-2-yl]-2-(4-fluorophenyl)butanamide] | 0.053
20 | CC[C@H](C(=O)N[C@@H]1Cc2ccccc2[C@H]1N)c1ccc(F)cc1 [Example 53, (2S)—N-[(1R,2R)-1-amino-2,3-dihydro-1H-inden-2-yl]-2-(4-fluorophenyl)butanamide] | 0.126
21 | COc1ccc(C(C)C(=O)N[C@H]2Cc3ccccc3[C@@H]2N)cc1 (stereo partly drawn) [Example 57, N-[(1S,2S)-1-amino-2,3-dihydro-1H-inden-2-yl]-2-(4-methoxyphenyl)propanamide hydrochloride] | 2.21
22 | CC(C(=O)N[C@H]1Cc2ccccc2[C@@H]1N)c1ccc(C(F)(F)F)cc1 (stereo partly drawn) [Example 58, N-[(1S,2S)-1-amino-2,3-dihydro-1H-inden-2-yl]-2-[4-(trifluoromethyl)phenyl]propanamide hydrochloride] | 1.78
23 | CN[C@H]1c2ccccc2C[C@@H]1NC(=O)[C@@H](C)c1ccc(F)cc1 [Example 64, (2S)-2-(4-fluorophenyl)-N-[(1S,2S)-1-(methylamino)-2,3-dihydro-1H-inden-2-yl]propanamide] | 0.045
24 | C[C@H](C(=O)N[C@H]1Cc2ccccc2[C@@H]1N(C)C)c1ccc(F)cc1 [Example 74, (2S)—N-(trans)-[1-(dimethylamino)-2,3-dihydro-1H-inden-2-yl]-2-(4-fluorophenyl)propanamide] | 0.094
25 | N[C@H]1c2ccccc2C[C@@H]1NC(=O)C1(c2ccccc2Cl)CC1 [Example 79, N-[(1S,2S)-1-amino-2,3-dihydro-1H-inden-2-yl]-1-(2-chlorophenyl)cyclopropane-1-carboxamide] | 0.44
26 | CC(=O)N[C@H]1c2ccccc2C[C@@H]1NC(=O)[C@@H](C)c1ccc(F)cc1F [Example 80, (2S)-2-(2,4-difluorophenyl)-N-[(1S,2S)-1-acetamido-2,3-dihydro-1H-inden-2-yl]propanamide] | 0.814
27 | COC1c2ccccc2C[C@@H]1NC(=O)[C@@H](NS(=O)(=O)c1c(C)noc1C)c1ccc(F)cc1 (stereo partly drawn) [Example 83, (2S)-2-(3,5-dimethyl-1,2-isoxazole-4-sulfonamido)-2-(4-fluorophenyl)-N-((trans)-1-methoxy-2,3-dihydro-1H-inden-2-yl)acetamide] | 0.026
28 | N[C@H]1c2ccccc2C[C@@H]1NC(=O)C(c1ccc(F)cc1)C1CC1 (stereo partly drawn) [Example 86, N-[(1S,2S)-1-amino-2,3-dihydro-1H-inden-2-yl]-2-cyclopropyl-2-(4-fluorophenyl)acetamide] | 0.721
29 | CC(C)(C)OC(=O)N[C@H]1c2ccccc2C[C@@H]1NC(=O)C1(c2ccccc2)COC1 [Example 88, tert-butyl N-[(1S,2S)-2-(3-phenyloxetane-3-amido)-2,3-dihydro-1H-inden-1-yl]carbamate] | 0.053
30 | C[C@H](C(=O)N[C@H]1Cc2ccccc2[C@@H]1NC1CCC1)c1ccc(F)cc1F [Example 91, (2S)—N-[(1S,2S)-1-(cyclobutylamino)-2,3-dihydro-1H-inden-2-yl]-2-(2,4-difluorophenyl)propanamide] | 0.038
31 | C[C@H](C(=O)N[C@H]1Cc2ccccc2[C@@H]1NCc1ncccc1F)c1ccc(F)cc1F [Example 92, (2S)-2-(2,4-difluorophenyl)-N-[(1S,2S)-1-{[(3-fluoropyridin-2-yl)methyl]amino}-2,3-dihydro-1H-inden-2-yl]propanamide] | 0.007
32 | CN[C@@H]1c2ccccc2C[C@H]1NC(=O)[C@@H](C)c1ccc(F)cc1 [Example 95, (2S)-2-(4-fluorophenyl)-N-[(1R,2R)-1-(methylamino)-2,3-dihydro-1H-inden-2-yl]propanamide] | 0.009
33 | COC1c2ccccc2C[C@@H]1NC(=O)[C@@H](NC(=O)C1CCOCC1)c1ccc(F)cc1 (stereo partly drawn) [Example 98, (2S)-2-(4-fluorophenyl)-N-(trans)-(1-methoxy-2,3-dihydro-1H-inden-2-yl)-2-[(oxan-4-yl)formamido]acetamide] | 0.004
34 | CC(C)(C(=O)N[C@H]1Cc2ccccc2[C@@H]1N)c1ccc(F)cc1 [Example 99, N-[(1S,2S)-1-amino-2,3-dihydro-1H-inden-2-yl]-2-(4-fluorophenyl)-2-methylpropanamide] | 2.19
35 | CC(C)(C)OC(=O)N[C@H]1c2ccccc2C[C@@H]1NC(=O)C(c1ccc(F)cc1F)N1CCC1 (stereo partly drawn) [Example 100, tert-butyl N-[(1S,2S)-2-[2-(azetidin-1-yl)-2-(2,4-difluorophenyl)acetamido]-2,3-dihydro-1H-inden-1-yl]carbamate] | 0.027
36 | N[C@H]1c2ccccc2C[C@@H]1NC(=O)C(c1ccc(F)cc1F)N1CC(F)(F)C1 (stereo partly drawn) [Example 103, N-[(1S,2S)-1-amino-2,3-dihydro-1H-inden-2-yl]-2-(3,3-difluoroazetidin-1-yl)-2-(2,4-difluorophenyl)acetamide formate] | 0.218
